B1: human CGI-58 (Comparative Gene Identification-58) wild-type protein (natural protein, UniProt Q8WTS1 1-349, looked up)
chain: MAAEEEEVDSADTGERSGWLTGWLPTWCPTSISHLKEAEEKMLKCVPCTYKKEPVRISNGNKIWTLKFSHNISNKTPLVLLHGFGGGLGLWALNFGDLCTNRPVYAFDLLGFGRSSRPRFDSDAEEVENQFVESIEEWRCALGLDKMILLGHNLGGFLAAAYSLKYPSRVNHLILVEPWGFPERPDLADQDRPIPVWIRALGAALTPFNPLAGLRIAGPFGLSLVQRLRPDFKRKYSSMFEDDTVTEYIYHCNVQTPSGETAFKNMTIPYGWAKRPMLQRIGKMHPDIPVSVIFGARSCIDGNSGTSIQSLRPHSYVKTIAILGAGHYVYADQPEEFNQKVKEICDTVD

Experiments:
[1] = target: T1, CGI-58 (Homo sapiens, UniProt Q8WTS1, S237E/W19A/W23A/W27A); test: intrinsic tryptophan fluorescence quenching, […] protein, […] °C; type: binding
T1 sequence (Q8WTS1 1-349 W19A/W23A/W27A/S237E): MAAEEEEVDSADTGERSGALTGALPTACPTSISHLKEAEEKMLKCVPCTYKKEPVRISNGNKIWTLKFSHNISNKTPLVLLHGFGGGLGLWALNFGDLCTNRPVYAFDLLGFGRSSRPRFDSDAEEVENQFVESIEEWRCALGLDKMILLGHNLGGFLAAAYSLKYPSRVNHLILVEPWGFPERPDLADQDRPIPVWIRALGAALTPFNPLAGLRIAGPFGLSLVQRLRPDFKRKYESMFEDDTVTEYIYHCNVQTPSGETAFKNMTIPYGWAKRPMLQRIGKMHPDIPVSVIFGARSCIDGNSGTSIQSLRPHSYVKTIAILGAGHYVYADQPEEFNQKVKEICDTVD

[2] = target: the molecule itself; test: SEC

Row | Molecule | Kd [1] [nM] | binding result [2]
1 | CCCCCCCC/C=C\CCCCCCCC(=O)SCCNC(=O)CCNC(=O)[C@H](O)C(C)(C)COP(=O)(O)OP(=O)(O)OC[C@H]1O[C@@H](n2cnc3c(N)ncnc32)[C@H](O)[C@@H]1OP(=O)(O)O [oleoyl-CoA] | 2300 ± 300 | –
2 | B1 | – | binds

Source: PMC9026008 (ACS Omega, 2022)
